Results as given in ChEMBL document CHEMBL1201862, “PubChem BioAssay data set” (2004).
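Cells were grown in 96-well plates and exposed to each compound for 48 hours at five concentrations; endpoints were interpolated linearly between bracketing concentrations, or set to the highest concentration if not reached. GI50 is the concentration that inhibits growth by half.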 Activity calls are given as the source filed them. Cut-off read from the data, not from the text of the source: active = GI50 up to about 1.1 µM and inactive = higher.

Experiments:
Experiment in all cases: NCI-60 cell line screen, 48 h
RXF 393 = test system: RXF 393
M14 = test system: M14
A498 = test system: A498
CAKI-1 = test system: CAKI-1
MOLT-4 = test system: MOLT-4
CCRF-CEM = test system: CCRF-CEM
UACC-257 = test system: UACC-257
MDA-N = test system: MDA-N
LOX IMVI = test system: LOX IMVI
MDA-MB-435 = test system: MDA-MB-435
SK-OV-3 = test system: SK-OV-3
A549 = test system: A549
SR = test system: SR
OVCAR-5 = test system: OVCAR-5
NCI-H23 = test system: NCI-H23
OVCAR-3 = test system: OVCAR-3
HOP-92 = test system: HOP-92
SW-620 = test system: SW-620
MDA-MB-231 = test system: MDA-MB-231
HCC 2998 = test system: HCC 2998
NCI-H522 = test system: NCI-H522
SNB-19 = test system: SNB-19
NCI-H460 = test system: NCI-H460
SK-MEL-5 = test system: SK-MEL-5
KM12 = test system: KM12
MCF7 = test system: MCF7
HL-60 = test system: HL-60
SK-MEL-2 = test system: SK-MEL-2
IGROV-1 = test system: IGROV-1
RPMI-8226 = test system: RPMI-8226
COLO 205 = test system: COLO 205
UO-31 = test system: UO-31
DU-145 = test system: DU-145
NCI-H226 = test system: NCI-H226
BT-549 = test system: BT-549
PC-3 = test system: PC-3
SF-268 = test system: SF-268
T47D = test system: T47D
HOP-62 = test system: HOP-62
U-251 = test system: U-251
SK-MEL-28 = test system: SK-MEL-28
OVCAR-4 = test system: OVCAR-4
ACHN = test system: ACHN
TK-10 = test system: TK-10
SF-539 = test system: SF-539
HCT-15 = test system: HCT-15
OVCAR-8 = test system: OVCAR-8
SN12C = test system: SN12C
HT-29 = test system: HT-29
HCT-116 = test system: HCT-116
786-0 = test system: 786-0
NCI/ADR-RES = test system: NCI/ADR-RES
Hs-578T = test system: Hs-578T
K562 = test system: K562
EKVX = test system: EKVX
SF-295 = test system: SF-295
UACC-62 = test system: UACC-62
Malme-3M = test system: Malme-3M

Measured: GI50

Cc1c(C(=O)O)n2cnnc2c2ccccc12
inactive: RXF 393 > 100 µM | M14 > 100 µM | A498 > 100 µM | CAKI-1 > 100 µM | MOLT-4 > 100 µM | CCRF-CEM > 100 µM | UACC-257 > 100 µM | MDA-N > 100 µM | LOX IMVI > 100 µM | MDA-MB-435 > 100 µM | SK-OV-3 > 100 µM | A549 > 100 µM | SR > 100 µM | OVCAR-5 > 100 µM | NCI-H23 > 100 µM | OVCAR-3 > 100 µM | HOP-92 > 100 µM | SW-620 > 100 µM | MDA-MB-231 > 100 µM | HCC 2998 > 100 µM | NCI-H522 > 100 µM | SNB-19 > 100 µM | NCI-H460 > 100 µM | SK-MEL-5 > 100 µM | KM12 > 100 µM | MCF7 > 100 µM | HL-60 > 100 µM | SK-MEL-2 > 100 µM | IGROV-1 > 100 µM | RPMI-8226 > 100 µM | COLO 205 > 100 µM | UO-31 > 100 µM | DU-145 > 100 µM | NCI-H226 > 100 µM | BT-549 > 100 µM | PC-3 > 100 µM | SF-268 > 100 µM | T47D > 100 µM | HOP-62 > 100 µM | U-251 > 100 µM | SK-MEL-28 > 100 µM | OVCAR-4 > 100 µM | ACHN > 100 µM | TK-10 > 100 µM | SF-539 > 100 µM | OVCAR-8 > 100 µM | SN12C > 100 µM | HT-29 > 100 µM | HCT-116 > 100 µM | 786-0 > 100 µM | NCI/ADR-RES > 100 µM | Hs-578T > 100 µM | K562 > 100 µM | EKVX > 100 µM | SF-295 > 100 µM | UACC-62 > 100 µM
> 100 µM: HCT-15

N=C(c1cccs1)C1(N2CCCCC2)CCCCC1
inactive: RXF 393 14.6 µM | M14 20.3 µM | A498 17.7 µM | CAKI-1 15.3 µM | MOLT-4 15.7 µM | CCRF-CEM 17.7 µM | UACC-257 15.6 µM | MDA-N 49.5 µM | LOX IMVI 28.2 µM | MDA-MB-435 18.2 µM | SK-OV-3 19.6 µM | A549 27.7 µM | SR 16.9 µM | OVCAR-5 19.4 µM | NCI-H23 24.3 µM | OVCAR-3 15.3 µM | HOP-92 20.8 µM | SW-620 16.6 µM | MDA-MB-231 16.6 µM | HCC 2998 14.1 µM | NCI-H522 14.8 µM | SNB-19 17.5 µM | NCI-H460 15.7 µM | KM12 17.6 µM | Malme-3M 14.6 µM | MCF7 16.6 µM | HL-60 13.2 µM | SK-MEL-2 16.6 µM | IGROV-1 22.3 µM | RPMI-8226 16.5 µM | UO-31 16.1 µM | DU-145 15.8 µM | BT-549 24.5 µM | PC-3 18.7 µM | SF-268 21.1 µM | T47D 11.6 µM | HOP-62 20.3 µM | U-251 16.4 µM | OVCAR-4 20.5 µM | ACHN 16.9 µM | TK-10 17.3 µM | SN12C 33.8 µM | HT-29 17.3 µM | HCT-116 42.2 µM | 786-0 70.5 µM | NCI/ADR-RES 25.4 µM | Hs-578T 57.4 µM | K562 16.4 µM | EKVX 20.9 µM | SF-295 18.2 µM | UACC-62 14.9 µM
14.8 µM: HCT-15
